Measurements from ChEMBL document CHEMBL1201862, “PubChem BioAssay data set” (2004).
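In this assay, cells in 96-well plates receive the compound at five concentrations for 48 hours. Endpoints are linearly interpolated between the surrounding concentrations. GI50: concentration for 50% inhibition of growth.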 Activity calls are given as the source filed them. No stated cut-off is given here; in the data, active = GI50 up to about 1.1 µM and inactive = higher.

Key:
Assay in all cases: DTP human tumour cell line panel, 48 h
[1] = system: HOP-62
[2] = system: SN12C
[3] = system: HL-60
[4] = system: ACHN
[5] = system: MDA-N
[6] = system: SW-620
[7] = system: SNB-19
[8] = system: RXF 393
[9] = system: MCF7
[10] = system: SK-MEL-2
[11] = system: SK-MEL-5
[12] = system: 786-0
[13] = system: NCI-H23
[14] = system: DU-145
[15] = system: OVCAR-3
[16] = system: SK-MEL-28
[17] = system: PC-3
[18] = system: HCT-15
[19] = system: CCRF-CEM

| SMILES | GI50 [1] | GI50 [2] | GI50 [3] | GI50 [4] | GI50 [5] | GI50 [6] | GI50 [7] | GI50 [8] | GI50 [9] | GI50 [10] | GI50 [11] | GI50 [12] | GI50 [13] | GI50 [14] | GI50 [15] | GI50 [16] | GI50 [17] | GI50 [18] [µM] | GI50 [19] |
| --- | --- | --- | --- | --- | --- | --- | --- | --- | --- | --- | --- | --- | --- | --- | --- | --- | --- | --- | --- |
| COc1cn2c(cc1=O)COc1ccc(-c3ccccc3)cc1-2 | 83.6 µM (inactive) | 77.3 µM (inactive) | 41.3 µM (inactive) | 48.4 µM (inactive) | 49.5 µM (inactive) | > 100 µM (inactive) | 40 µM (inactive) | > 82.6 µM (inactive) | 21.1 µM (inactive) | > 100 µM (inactive) | 23.5 µM (inactive) | > 88.1 µM (inactive) | 45.5 µM (inactive) | 52.4 µM (inactive) | > 55.7 µM (inactive) | > 100 µM (inactive) | 43.2 µM (inactive) | 54.5 | – |
| O=C1/C(=C/c2ccc(Cl)cc2)CCCc2ccccc21 | 24.5 µM (inactive) | 18.7 µM (inactive) | 13.7 µM (inactive) | 16.9 µM (inactive) | 17.1 µM (inactive) | 15.4 µM (inactive) | 18.4 µM (inactive) | – | 17.2 µM (inactive) | 14.7 µM (inactive) | – | 17.3 µM (inactive) | 23.7 µM (inactive) | 23.1 µM (inactive) | 18.9 µM (inactive) | 16.6 µM (inactive) | 19.6 µM (inactive) | 14 | 12.5 µM (inactive) |
| CC1CN=C(N(Cc2ccccc2)C(=O)Nc2ccc(Cl)c(Cl)c2)S1 (stereo not given) | 87.5 µM (inactive) | 17.2 µM (inactive) | > 10 µM (inactive) | 12.6 µM (inactive) | 29.6 µM (inactive) | 43.5 µM (inactive) | 62.4 µM (inactive) | – | 52.1 µM (inactive) | 23.4 µM (inactive) | 23.3 µM (inactive) | 30.5 µM (inactive) | 43.1 µM (inactive) | 42.7 µM (inactive) | 50.9 µM (inactive) | 26.1 µM (inactive) | 31.4 µM (inactive) | 15.7 | > 10 µM (inactive) |
| CC(=N/NC(=S)N(C)C)/C(=N\NC(=S)N(C)C)c1ccccc1 | 2.24 µM (inactive) | 1.47 µM (inactive) | – | 1.71 µM (inactive) | 2.11 µM (inactive) | 1.93 µM (inactive) | 2.56 µM (inactive) | 1.46 µM (inactive) | 2.84 µM (inactive) | 1.99 µM (inactive) | 1.64 µM (inactive) | 2 µM (inactive) | 2.32 µM (inactive) | 5.46 µM (inactive) | 1.76 µM (inactive) | 1.9 µM (inactive) | 2 µM (inactive) | 1.21 | – |
| CNC(=S)N/N=C(\C(=N/NC(=S)NC)c1ccccn1)c1ccccn1 | 7.78 µM (inactive) | 4.08 µM (inactive) | – | 2.99 µM (inactive) | 44.3 µM (inactive) | 1.24 µM (inactive) | 10.3 µM (inactive) | 5.07 µM (inactive) | < 0.0355 µM (active) | 14.3 µM (inactive) | 1.53 µM (inactive) | 5.71 µM (inactive) | 9.12 µM (inactive) | 8.05 µM (inactive) | 0.31 µM (active) | 29 µM (inactive) | 1.03 µM (active) | 0.232 | – |
| CCC(c1ccc2cc(O)ccc2c1)C(C)(C)C(=O)O (stereo not given) | > 100 µM (inactive) | > 100 µM (inactive) | – | > 100 µM (inactive) | > 100 µM (inactive) | > 100 µM (inactive) | > 100 µM (inactive) | > 100 µM (inactive) | > 100 µM (inactive) | > 100 µM (inactive) | > 100 µM (inactive) | > 100 µM (inactive) | > 100 µM (inactive) | > 100 µM (inactive) | > 100 µM (inactive) | > 100 µM (inactive) | > 100 µM (inactive) | > 100 | – |
| O=S(=O)(c1ccccc1)C(c1ccc2ccccc2n1)S(=O)(=O)c1ccccc1 | 78 µM (inactive) | > 100 µM (inactive) | > 100 µM (inactive) | > 100 µM (inactive) | > 100 µM (inactive) | > 100 µM (inactive) | > 100 µM (inactive) | > 100 µM (inactive) | > 100 µM (inactive) | – | > 100 µM (inactive) | > 100 µM (inactive) | > 100 µM (inactive) | > 100 µM (inactive) | > 100 µM (inactive) | > 100 µM (inactive) | > 100 µM (inactive) | > 100 | – |
| O=C1[C@@H]2Cc3c([nH]c4ccccc34)C(C3CCCCC3)N2C(=O)[C@@H]2CCCN12 (stereo not given in full) | 31.4 µM (inactive) | 26.5 µM (inactive) | 27.3 µM (inactive) | 28.9 µM (inactive) | 30.2 µM (inactive) | 41.2 µM (inactive) | 39.9 µM (inactive) | 29.9 µM (inactive) | 30.4 µM (inactive) | 20 µM (inactive) | 17.7 µM (inactive) | 27.8 µM (inactive) | 38.1 µM (inactive) | 55.5 µM (inactive) | 20.4 µM (inactive) | 50.2 µM (inactive) | 22.3 µM (inactive) | 33.4 | – |
| O=C1c2ccccc2-c2c1c(-c1ccc(F)cc1)nc1ccc3ccccc3c21 | > 100 µM (inactive) | > 100 µM (inactive) | – | > 100 µM (inactive) | > 100 µM (inactive) | > 100 µM (inactive) | > 100 µM (inactive) | > 100 µM (inactive) | > 100 µM (inactive) | > 100 µM (inactive) | – | > 100 µM (inactive) | > 100 µM (inactive) | > 100 µM (inactive) | > 100 µM (inactive) | > 100 µM (inactive) | > 100 µM (inactive) | > 100 | > 100 µM (inactive) |
| COc1cc2c(cc1OC)C(C)N(C)c1c-2c(OC(C)=O)cc2cc(OC)c(OC)cc12 (stereo not given) | 21.3 µM (inactive) | 9.93 µM (inactive) | – | 17.3 µM (inactive) | 14.6 µM (inactive) | 23.7 µM (inactive) | 27.5 µM (inactive) | 6.12 µM (inactive) | 12.5 µM (inactive) | 13.5 µM (inactive) | 4.67 µM (inactive) | 13.1 µM (inactive) | 15.4 µM (inactive) | 16.9 µM (inactive) | 4.29 µM (inactive) | 19.9 µM (inactive) | 14.7 µM (inactive) | 15 | 31.6 µM (inactive) |
| CCOC(=O)C(=[N+]=[N-])C(=O)CN1C(=O)c2ccccc2C1=O | > 100 µM (inactive) | > 100 µM (inactive) | – | > 100 µM (inactive) | > 100 µM (inactive) | > 100 µM (inactive) | > 100 µM (inactive) | > 100 µM (inactive) | > 100 µM (inactive) | > 100 µM (inactive) | > 100 µM (inactive) | > 100 µM (inactive) | > 100 µM (inactive) | > 100 µM (inactive) | > 100 µM (inactive) | > 100 µM (inactive) | > 100 µM (inactive) | > 100 | – |
| Oc1cc(CN2COc3ccccc32)c(O)cc1CNC1CCCCC1 | 71.1 µM (inactive) | 30.7 µM (inactive) | – | 29.2 µM (inactive) | 17.7 µM (inactive) | 35.6 µM (inactive) | > 100 µM (inactive) | 21.5 µM (inactive) | 20.4 µM (inactive) | 23.3 µM (inactive) | 19.3 µM (inactive) | 18.5 µM (inactive) | 22.3 µM (inactive) | 45.2 µM (inactive) | 26.2 µM (inactive) | 21.8 µM (inactive) | 19.3 µM (inactive) | 20.1 | 4.53 µM (inactive) |
| CC1(C)CNCC(C)(OCc2ccccc2)C(=O)NC(C)(C)CNCC(C)(OCc2ccccc2)C(=O)N1 (stereo not given) | > 10 µM (inactive) | > 10 µM (inactive) | – | > 10 µM (inactive) | > 10 µM (inactive) | > 10 µM (inactive) | > 10 µM (inactive) | 3.78 µM (inactive) | > 10 µM (inactive) | > 10 µM (inactive) | > 10 µM (inactive) | > 10 µM (inactive) | > 10 µM (inactive) | > 10 µM (inactive) | > 10 µM (inactive) | > 10 µM (inactive) | > 10 µM (inactive) | > 10 | > 10 µM (inactive) |
| N/C(CCSCCSCC/C(N)=N\O)=N\O | > 100 µM (inactive) | > 100 µM (inactive) | > 100 µM (inactive) | > 100 µM (inactive) | > 100 µM (inactive) | > 100 µM (inactive) | > 100 µM (inactive) | > 100 µM (inactive) | > 100 µM (inactive) | – | > 100 µM (inactive) | > 100 µM (inactive) | > 100 µM (inactive) | > 100 µM (inactive) | > 100 µM (inactive) | > 100 µM (inactive) | > 100 µM (inactive) | > 100 | > 100 µM (inactive) |
| O=C1Nc2ccc(Br)cc2/C1=N/NC(=S)Nc1ccc([N+](=O)[O-])cc1 | 11.4 µM (inactive) | 8.02 µM (inactive) | 1.75 µM (inactive) | 5.19 µM (inactive) | 7.98 µM (inactive) | 6.81 µM (inactive) | – | 11.8 µM (inactive) | 7.13 µM (inactive) | 13.7 µM (inactive) | 7.74 µM (inactive) | 8.91 µM (inactive) | 2.55 µM (inactive) | 11.9 µM (inactive) | 6.65 µM (inactive) | 11.1 µM (inactive) | 7.13 µM (inactive) | 2.69 | – |
| CS(=O)(=O)C[S+]([O-])C[S+]([O-])C[S+]([O-])CC(NC(=O)CCC(N)C(=O)O)C(=O)O (stereo not given) | > 100 µM (inactive) | > 100 µM (inactive) | 32.8 µM (inactive) | > 100 µM (inactive) | > 100 µM (inactive) | > 100 µM (inactive) | > 100 µM (inactive) | – | > 100 µM (inactive) | > 100 µM (inactive) | > 100 µM (inactive) | > 100 µM (inactive) | > 100 µM (inactive) | > 100 µM (inactive) | > 100 µM (inactive) | > 100 µM (inactive) | > 100 µM (inactive) | > 100 | > 100 µM (inactive) |
